Reference: patent US12209075B2, “Pyridine-sulfonamide derivatives as sodium channel inhibitors” (GENENTECH, INC., priority 2018, dated 2025)
Where a name gives a salt, the structure may show the parent alone.

Each compound was assayed against hNav1.7 (Homo sapiens (Human), UniProt Q15858) (assay: Tritiated compound binding to membranes from cells expressing hNav1.7 and the β1 subunit (Nav1.7 LBA EVO)). Settings: competitive binding vs [3H]compound, membranes with hNav1.7 and β1 subunit.
Chain of hNav1.7 (Q15858 whole entry, looked up): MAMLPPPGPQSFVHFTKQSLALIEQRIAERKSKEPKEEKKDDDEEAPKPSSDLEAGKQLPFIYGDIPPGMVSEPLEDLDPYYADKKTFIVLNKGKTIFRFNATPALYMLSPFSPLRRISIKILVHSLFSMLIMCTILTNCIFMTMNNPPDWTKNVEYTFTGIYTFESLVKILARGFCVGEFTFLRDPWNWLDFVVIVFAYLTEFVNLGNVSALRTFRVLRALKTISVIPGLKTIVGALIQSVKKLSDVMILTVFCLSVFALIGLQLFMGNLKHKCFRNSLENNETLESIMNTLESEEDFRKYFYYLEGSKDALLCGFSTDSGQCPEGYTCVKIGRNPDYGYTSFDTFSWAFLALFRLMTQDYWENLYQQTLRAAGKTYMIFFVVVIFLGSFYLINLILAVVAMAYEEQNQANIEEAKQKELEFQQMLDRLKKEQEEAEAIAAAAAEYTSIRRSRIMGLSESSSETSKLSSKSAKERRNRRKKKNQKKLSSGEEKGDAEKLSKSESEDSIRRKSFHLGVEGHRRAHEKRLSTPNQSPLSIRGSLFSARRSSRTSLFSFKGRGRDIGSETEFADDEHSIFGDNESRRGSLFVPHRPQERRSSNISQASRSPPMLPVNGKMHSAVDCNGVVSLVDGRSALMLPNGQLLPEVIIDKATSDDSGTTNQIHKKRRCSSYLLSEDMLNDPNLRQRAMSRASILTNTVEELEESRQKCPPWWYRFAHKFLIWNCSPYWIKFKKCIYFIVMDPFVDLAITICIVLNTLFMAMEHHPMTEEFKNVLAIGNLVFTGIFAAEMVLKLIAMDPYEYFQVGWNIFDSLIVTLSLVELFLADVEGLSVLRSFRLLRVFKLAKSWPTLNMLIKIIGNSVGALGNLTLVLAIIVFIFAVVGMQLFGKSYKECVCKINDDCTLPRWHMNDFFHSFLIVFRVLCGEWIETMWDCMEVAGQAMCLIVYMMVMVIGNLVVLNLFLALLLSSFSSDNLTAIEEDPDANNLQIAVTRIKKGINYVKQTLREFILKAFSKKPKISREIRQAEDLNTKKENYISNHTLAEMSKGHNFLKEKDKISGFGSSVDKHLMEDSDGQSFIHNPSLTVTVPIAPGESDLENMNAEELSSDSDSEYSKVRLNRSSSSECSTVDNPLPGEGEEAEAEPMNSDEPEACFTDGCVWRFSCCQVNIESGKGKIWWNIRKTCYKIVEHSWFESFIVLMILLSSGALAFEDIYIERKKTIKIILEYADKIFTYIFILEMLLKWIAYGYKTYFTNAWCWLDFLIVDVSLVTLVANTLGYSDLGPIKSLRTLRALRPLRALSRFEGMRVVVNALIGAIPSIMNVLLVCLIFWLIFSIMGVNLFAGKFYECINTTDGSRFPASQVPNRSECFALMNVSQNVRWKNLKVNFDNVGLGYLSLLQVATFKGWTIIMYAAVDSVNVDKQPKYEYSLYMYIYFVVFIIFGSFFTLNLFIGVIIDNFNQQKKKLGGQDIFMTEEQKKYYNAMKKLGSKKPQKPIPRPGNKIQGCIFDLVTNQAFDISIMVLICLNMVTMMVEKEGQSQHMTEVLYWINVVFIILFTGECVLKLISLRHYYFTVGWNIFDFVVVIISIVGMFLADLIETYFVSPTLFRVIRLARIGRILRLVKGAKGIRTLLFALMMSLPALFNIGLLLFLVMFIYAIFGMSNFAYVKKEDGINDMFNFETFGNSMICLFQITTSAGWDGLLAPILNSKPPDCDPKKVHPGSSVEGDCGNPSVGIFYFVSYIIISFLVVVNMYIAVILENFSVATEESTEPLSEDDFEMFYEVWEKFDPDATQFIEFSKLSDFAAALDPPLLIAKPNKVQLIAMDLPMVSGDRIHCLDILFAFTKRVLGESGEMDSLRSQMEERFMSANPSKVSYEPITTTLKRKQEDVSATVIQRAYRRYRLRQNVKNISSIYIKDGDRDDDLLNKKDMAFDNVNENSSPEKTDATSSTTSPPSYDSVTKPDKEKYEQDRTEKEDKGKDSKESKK
Chain of hNav1.7 (Q07699 whole entry partner, looked up): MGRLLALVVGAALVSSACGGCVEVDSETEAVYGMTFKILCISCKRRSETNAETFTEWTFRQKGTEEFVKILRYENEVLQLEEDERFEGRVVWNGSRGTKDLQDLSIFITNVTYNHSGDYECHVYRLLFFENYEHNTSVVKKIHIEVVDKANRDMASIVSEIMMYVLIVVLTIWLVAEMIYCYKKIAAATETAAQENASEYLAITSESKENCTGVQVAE
Procedure: Example 64a. Tritiated Compound Binding to Membranes Isolated from Cells that Heterologously Express hNav1.7 and the β1 Subunit
Preparation of membranes containing recombinantly expressed sodium channels: Frozen recombinant cell pellets are thawed on ice and diluted to 4 times the cell pellet weight with ice cold 50 mM Tris HCl, pH 7.4 buffer. The cell suspensions are homogenized on ice using a motorized glass dounce homogeniser. Homogenates are further diluted 8.4 times with ice cold 50 mM Tris HCl, pH 7.4 buffer and then centrifuged at 200×g at 4° C. for 15 minutes. The supernatants are collected and centrifuged at 10000×g at 4° C. for 50 min. The pellets are then re-suspended in 100 mM NaCl, 20 mM Tris HCl, pH 7.4 buffer containing 1% v/v protease inhibitors (Calbiochem) and re-homogenized on ice. The homogenized membranes are then processed through a syringe equipped with a 26 gauge needle. Protein concentrations arer determined by Bradford Assay and the membranes are stored at −80° C.
Radioligand Binding Studies: Saturation experiments. A competitive NaV1.7 inhibitor having a methyl group is tritiated. Three tritiums are incorporated in place of methyl hydrogens to generate [^3H]compound. Binding of this radioligand is performed in 5 mL borosilicate glass test tubes at room temperature. Binding is initiated by adding membranes to increasing concentrations of [^3H]compound in 100 mM NaCl, 20 mM Tris HCl, pH 7.4 buffer containing 0.01% w/v bovine serum albumin (BSA) for 18 h. Non-specific binding is determined in the presence of 1 μM unlabeled compound. After 18 h, the reactants are filtered through GF/C glass fiber filters presoaked in 0.5% w/v polyethylene imine. Filters are washed with 15 mL ice cold 100 mM NaCl, 20 mM Tris HCl, pH7.4 buffer containing 0.25% BSA to separate bound from free ligand. [^3H]compound bound to filters is quantified by liquid scintillation counting.
Competitive binding experiments: Binding reactions are performed in 96-well polypropylene plates at room temperature for 18 h. In 360 μL, membranes are incubated with 100 pM [^3H]compound and increasing concentrations of Test Compound. Non-specific binding is defined in the presence of 1 μM unlabeled compound. Reactions are transferred and filtered through 96-well glass fiber/C filter plates presoaked with 0.5% polyethylene imine. The filtered reactions are washed 5 times with 200 μL ice cold buffer containing 0.25% BSA. Bound radioactivity is determined by liquid scintillation counting.
Data Analysis: For saturation experiments, non-specific binding is subtracted from total binding to provide specific binding and these values are recalculated in terms of pmol ligand bound per mg protein. Saturation curves are constructed and dissociation constants are calculated using the single site ligand binding model: Beq=(Bmax*X)/(X+Kd), where Beq is the amount of ligand bound at equilibrium, Bmax is the maximum receptor density, Kd is the dissociation constant for the ligand, and X is the free ligand concentration. For competition studies percent inhibition is determined and IC50 values are calculated using a 4 parameter logistic model (% inhibition=(A+((B−A)/(1+((x/C)^D)))) using XLfit, where A and B are the maximal and minimum inhibition respectively, C is the IC50 concentration and D is the (Hill) slope.
Example 64b. Tritiated Compound Binding to Membranes Isolated from Cells that Heterologous Express hNav1.7 and the β1 Subunit
Preparation of membranes containing recombinantly expressed sodium channels: Following the procedure described in 31a, and making modifications as required to: centrifuge supernatants at 100000×g instead of 10000×g; re-suspend pellets in a buffer containing 0.01% BSA in addition to 100 mM NaCl, 20 mM Tris HCl, pH 7.4 buffer, and 1% v/v […]; and storing membranes at −80° C. in single use aliquots instead of pooled. […]
With Cc1nc(O[C@H]2CC[C@H](c3cccc(C(F)(F)F)c3)C[C@@H]2N(C)C)c(F)cc1S(=O)(=O)Nc1ccncn1 [Example 53, 6-(((1S,2S,4S)-2-(Dimethylamino)-4-(3-(trifluoromethyl)phenyl)cyclohexyl)oxy)-5-fluoro-2-methyl-N-(pyrimidin-4-yl)pyridine-3-sulfonamide formate] the IC50 was 0.615 nM.
In the case of Cc1ccc([C@H]2CC[C@H](Oc3ccc(S(=O)(=O)Nc4ccncn4)c(C)n3)[C@@H](N(C)C)C2)cc1C(F)(F)F [Example 56, 6-(((1S,2S,4S)-2-(dimethylamino)-4-(4-methyl-3-(trifluoromethyl)phenyl)cyclohexyl)oxy)-2-methyl-N-(pyrimidin-4-yl)pyridine-3-sulfonamide formate], the IC50 is reported as 1.32 nM.
For CN(C)[C@H]1C[C@@H](c2cccc(C(F)(F)F)c2)CC[C@@H]1Oc1ncc(S(=O)(=O)Nc2ccncn2)cc1C(F)(F)F [Example 14, 6-(((1S,2S,4S)-2-(dimethylamino)-4-(3-(trifluoromethyl)phenyl)cyclohexyl)oxy)-N-(pyrimidin-4-yl)-5-(trifluoromethyl)pyridine-3-sulfonamide], the IC50 was 43.7 nM.
CCN(CC)[C@H]1C[C@@H](c2cccc(C(F)(F)F)c2)CC[C@@H]1Oc1ccc(S(=O)(=O)Nc2ccncn2)c(C)n1 [Example 47, 6-(((1S,2S,4S)-2-(Diethylamino)-4-(3-(trifluoromethyl)phenyl)cyclohexyl)oxy)-2-methyl-N-(pyrimidin-4-yl)pyridine-3-sulfonamide] was tested, and the IC50 was 0.915 nM.
O=S(=O)(Nc1ccncn1)c1ccc(O[C@H]2CC[C@H](c3cccc(OC(F)(F)F)c3)C[C@@H]2N2CCCC2)nc1 [Example 10, N-(pyrimidin-4-yl)-6-(((1S,2S,4S)-2-(pyrrolidin-1-yl)-4-(3-(trifluoromethoxy)phenyl)cyclohexyl)oxy)-pyridine-3-sulfonamide] gave an IC50 of 67.4 nM.
Compound Cc1nc(O[C@H]2CC[C@H](c3cccc(OC(F)(F)F)c3)C[C@@H]2N(C)C)ccc1S(=O)(=O)Nc1ccncn1 [Example 28, 6-(((1S,2S,4S)-2-(Dimethylamino)-4-(3-(trifluoromethoxy)phenyl)cyclohexyl)oxy)-2-methyl-N-(pyrimidin-4-yl)pyridine-3-sulfonamide] has an IC50 of 4.11 nM.
In the case of Cc1nc(O[C@H]2CC[C@H](c3cccc(C(F)(F)F)c3)C[C@@H]2N2CCCC2)ccc1S(=O)(=O)Nc1ccncn1 [Example 29, 2-Methyl-N-(pyrimidin-4-yl)-6-(((1S,2S,4S)-2-(pyrrolidin-1-yl)-4-(3-(trifluoromethyl)phenyl)-cyclohexyl)oxy)pyridine-3-sulfonamide], the IC50 is reported as 67.4 nM.
Work on CN(C)[C@H]1C[C@@H](c2cccc(C(F)(F)F)c2)CC[C@@H]1Oc1cc(Cl)c(S(=O)(=O)Nc2ccncn2)cn1 [Example 31, 4-Chloro-6-(((1S,2S,4S)-2-(dimethylamino)-4-(3-(trifluoromethyl)phenyl)cyclohexyl)oxy)-N-(pyrimidin-4-yl)pyridine-3-sulfonamide] yielded an IC50 of 1.89 nM.
Compound Cc1nc(O[C@H]2CC[C@H](c3cc(F)cc(C(F)(F)F)c3)C[C@@H]2N(C)C)ccc1S(=O)(=O)Nc1ccncn1 [Example 42, 6-(((1S,2S,4S)-2-(Dimethylamino)-4-(3-fluoro-5-(trifluoromethyl)phenyl)cyclohexyl)oxy)-2-methyl-N-(pyrimidin-4-yl)pyridine-3-sulfonamide] has an IC50 of 0.72 nM.
Compound CN(C)[C@H]1C[C@@H](c2ccc(Cl)c(C(F)(F)F)c2)CC[C@@H]1Nc1ccc(S(=O)(=O)Nc2ccncn2)cn1 [Example 11, 6-(((1S,2S,4S)-4-(4-chloro-3-(trifluoromethyl)phenyl)-2-(dimethylamino)cyclohexyl)amino)-N-(pyrimidin-4-yl)pyridine-3-sulfonamide formate] has an IC50 of 16.6 nM.
Cc1cc(O[C@H]2CC[C@H](c3cccc(C(F)(F)F)c3)C[C@@H]2N(C)C)ncc1S(=O)(=O)Nc1ccncn1 [Example 32, 6-(((1S,2S,4S)-2-(Dimethylamino)-4-(3-(trifluoromethyl)phenyl)cyclohexyl)oxy)-4-methyl-N-(pyrimidin-4-yl)pyridine-3-sulfonamide] was tested, and the IC50 was 2.07 nM.
Compound Cc1nc(O[C@H]2CC[C@H](c3cc(C(F)(F)F)ccc3Cl)C[C@@H]2N(C)C)ccc1S(=O)(=O)Nc1ccncn1 [Example 38, 6-(((1S,2S,4S)-4-(2-chloro-5-(trifluoromethyl)phenyl)-2-(dimethylamino)cyclohexyl)oxy)-2-methyl-N-(pyrimidin-4-yl)pyridine-3-sulfonamide] has an IC50 of 1.77 nM.
CN(C)[C@H]1C[C@@H](c2cccc(SC(F)(F)F)c2)CC[C@@H]1Oc1ccc(S(=O)(=O)Nc2ccncn2)cn1 [Example 63, 6-(((1S,2S,4S)-2-(Dimethylamino)-4-(3-((trifluoromethyl)thio)phenyl)cyclohexyl)oxy)-N-(pyrimidin-4-yl)pyridine-3-sulfonamide] was tested, and the IC50 was 0.635 nM.
In the case of Cc1nc(O[C@H]2CC[C@H](c3cccc(OC(F)(F)F)c3)C[C@@H]2N2CCCC2)ccc1S(=O)(=O)Nc1ccncn1 [Example 30, 2-Methyl-N-(pyrimidin-4-yl)-6-(((1S,2S,4S)-2-(pyrrolidin-1-yl)-4-(3-(trifluoromethoxy)phenyl)-cyclohexyl)oxy)pyridine-3-sulfonamide], the IC50 is reported as 16.6 nM.
Work on CN(C)[C@H]1C[C@@H](c2cccc(C(F)(F)F)c2)CC[C@@H]1Nc1ncc(S(=O)(=O)Nc2ccncn2)cc1Cl [Example 4, 5-Chloro-6-(((1S,2S,4S)-2-(dimethylamino)-4-(3-(trifluoromethyl)phenyl)cyclohexyl)amino)-N-(pyrimidin-4-yl)pyridine-3-sulfonamide] yielded an IC50 of 8.3 nM.
Work on CN(C)[C@H]1C[C@@H](c2cccc(OC(F)(F)F)c2)CC[C@@H]1Oc1ccc(S(=O)(=O)Nc2ccncn2)cn1 [Example 25, 6-(((1S,2S,4S)-2-(dimethylamino)-4-(3-(trifluoromethoxy)phenyl)cyclohexyl)oxy)-N-(pyrimidin-4-yl)pyridine-3-sulfonamide formate] yielded an IC50 of 44.8 nM.
For CN(C)[C@H]1C[C@@H](c2cccc(OC(F)(F)F)c2)CC[C@@H]1Oc1ncc(S(=O)(=O)Nc2ccncn2)cc1Cl [Example 13, 5-chloro-6-(((1S,2S,4S)-2-(dimethylamino)-4-(3-(trifluoromethoxy)phenyl)cyclohexyl)oxy)-N-(pyrimidin-4-yl)pyridine-3-sulfonamide], the IC50 was 13.8 nM.
With Cc1nc(O[C@H]2CC[C@H](c3cccc(CC(F)(F)F)c3)C[C@@H]2N(C)C)ccc1S(=O)(=O)Nc1ccncn1 [Example 59, 6-(((1S,2S,4S)-2-(dimethylamino)-4-(3-(2,2,2-trifluoroethyl)phenyl)cyclohexyl)oxy)-2-methyl-N-(pyrimidin-4-yl)pyridine-3-sulfonamide] the IC50 was 1.59 nM.
Work on CN(C)[C@H]1C[C@@H](c2cc(C(F)(F)F)ccc2F)CC[C@@H]1Oc1ccc(S(=O)(=O)Nc2ccncn2)c(Cl)n1 [Example 44, 2-Chloro-6-(((1S,2S,4S)-2-(dimethylamino)-4-(2-fluoro-5-(trifluoromethyl)phenyl)-cyclohexyl)oxy)-N-(pyrimidin-4-yl)pyridine-3-sulfonamide formate] yielded an IC50 of 0.72 nM.
Cc1nc(O[C@H]2CC[C@H](c3ccc(Cl)c(C(F)(F)F)c3)C[C@@H]2N(C)C)ccc1S(=O)(=O)Nc1ccncn1 [Example 36, 6-(((1S,2S,4S)-4-(4-chloro-3-(trifluoromethyl)phenyl)-2-(dimethylamino)cyclohexyl)oxy)-2-methyl-N-(pyrimidin-4-yl)pyridine-3-sulfonamide] gave an IC50 of 1.28 nM.
